# From article PMC8869358, “High-Throughput Chemical Screening and Structure-Based Models to Predict hERG Inhibition” (Biology, 2022)
# Counter-ions that a name gives are not always drawn.
# Molecular target: hERG (Homo sapiens, UniProt Q12809)
# Assay: cell-based
# Settings: (-LOG10(IC50), µM)
# Chain of hERG (Q12809 whole entry): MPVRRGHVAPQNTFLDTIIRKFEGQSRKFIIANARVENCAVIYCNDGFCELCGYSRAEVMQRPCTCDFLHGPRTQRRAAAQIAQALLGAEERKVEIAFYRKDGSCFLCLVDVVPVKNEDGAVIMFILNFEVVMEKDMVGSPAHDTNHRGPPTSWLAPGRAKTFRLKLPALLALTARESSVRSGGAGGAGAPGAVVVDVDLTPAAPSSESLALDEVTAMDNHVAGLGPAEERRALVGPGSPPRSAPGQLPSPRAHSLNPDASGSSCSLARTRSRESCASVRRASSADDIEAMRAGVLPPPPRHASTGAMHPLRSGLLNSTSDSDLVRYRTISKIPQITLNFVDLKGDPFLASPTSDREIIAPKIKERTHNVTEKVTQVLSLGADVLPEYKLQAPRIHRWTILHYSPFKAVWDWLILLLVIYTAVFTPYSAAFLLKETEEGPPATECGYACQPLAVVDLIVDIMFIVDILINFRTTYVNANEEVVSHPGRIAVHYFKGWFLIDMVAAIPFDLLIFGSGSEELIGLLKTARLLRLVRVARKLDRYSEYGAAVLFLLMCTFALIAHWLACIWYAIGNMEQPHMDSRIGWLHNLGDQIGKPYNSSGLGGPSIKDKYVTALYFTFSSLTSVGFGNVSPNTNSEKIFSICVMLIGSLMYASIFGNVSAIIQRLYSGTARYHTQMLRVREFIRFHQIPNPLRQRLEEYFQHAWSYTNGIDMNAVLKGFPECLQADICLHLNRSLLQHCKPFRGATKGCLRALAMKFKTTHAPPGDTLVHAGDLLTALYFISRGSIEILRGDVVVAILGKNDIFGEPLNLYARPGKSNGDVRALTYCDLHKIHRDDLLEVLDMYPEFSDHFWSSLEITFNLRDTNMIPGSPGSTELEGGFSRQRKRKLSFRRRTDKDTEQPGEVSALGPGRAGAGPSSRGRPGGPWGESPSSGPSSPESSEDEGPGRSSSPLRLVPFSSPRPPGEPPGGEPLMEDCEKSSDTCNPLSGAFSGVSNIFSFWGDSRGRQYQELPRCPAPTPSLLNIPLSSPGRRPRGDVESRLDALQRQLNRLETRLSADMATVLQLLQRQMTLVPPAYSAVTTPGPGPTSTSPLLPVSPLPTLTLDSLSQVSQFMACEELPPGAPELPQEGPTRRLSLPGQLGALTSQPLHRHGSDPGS
row,Structure (SMILES),IC50
1,COc1ccc(C(=O)c2ccc(C)cc2)c(O)c1 [Mexenone],45.9 µM
2,CCCCCCCCCCCCCC[N+](C)(C)C [Myristyltrimethylammonium chloride],15 µM
3,O=S1(=O)OC[C@@H]2[C@H](CO1)[C@]1(Cl)C(Cl)=C(Cl)[C@@]2(Cl)C1(Cl)Cl [Endosulfan sulfate],16.1 µM
4,CCOC(=O)C1=NN(c2ccc(Cl)cc2Cl)C(C)(C(=O)OCC)C1 (centres unmarked) [Mefenpyr-diethyl],46.2 µM
5,NC(=O)C1(N2CCCCC2)CCN(CCCN2c3ccccc3CCc3ccc(Cl)cc32)CC1 [Clocapramine],1.45 µM
6,CC(CC1c2ccccc2CCc2ccccc21)CN(C)C (centres unmarked) [Butriptyline],16.9 µM
7,CCN(CC)C(=O)c1cc(S(=O)(=O)Cc2ccccc2)c(N2CCC(c3ccccc3)CC2)cc1N(CC)CCN(C)C [HMR1171 trifluoroacetate (1:1)],2.72 µM
8,CCN(CC)CCOc1ccc(Cc2ccccc2)cc1 [Tesmilifene],8.82 µM
9,COc1cc(N)c(Cl)cc1C(=O)NC1CCN(Cc2ccccc2)CC1 [Clebopride maleate],15.7 µM
10,CCCCOC(=O)[C@@H](C)Oc1ccc(Oc2ccc(C#N)cc2F)cc1 [Cyhalofop-butyl],4.87 µM
11,"COc1ccc2[nH]cc(CCN(C(C)C)C(C)C)c2c1 [5-Methoxy-N,N-diisopropyltryptamine hydrochloride]",25.2 µM
12,O=C(C=Cc1ccccc1)OCCc1ccccc1 [Phenethyl cinnamate],36 µM
13,Cn1c(-c2ccccc2)cc(-c2ccccc2)[n+]1C [Difenzoquat metilsulfate],34.7 µM
14,CCOP(=S)(OCC)OC(Cl)C(Cl)(Cl)Cl (centres unmarked) [Chlorethoxyfos],25.5 µM
15,CCc1oc2ccccc2c1C(=O)c1cc(Br)c(O)c(Br)c1 [Benzbromarone],10.7 µM
16,Cc1cc2c3c(c1)C(c1ccccc1)=N[C@@H](NC(=O)c1ccncc1)C(=O)N3CC2 [CI-1018],25.5 µM
17,"Cl[C@H]1[C@H](Cl)[C@@H](Cl)[C@H](Cl)[C@H](Cl)[C@H]1Cl [alpha-1,2,3,4,5,6-Hexachlorocyclohexane]",49.4 µM
18,COC(=O)C1=C(C)NC(C)=C(C(=O)OCCCN2CCC(c3ccccc3)(c3ccccc3)CC2)C1c1cccc([N+](=O)[O-])c1 (racemic) [(+/-) -Niguldipine hydrochloride (1:x)],1.25 µM
19,O=C(c1ccc(F)cc1)C1CCN(CCn2c(=O)[nH]c3ccccc3c2=O)CC1 [Ketanserin],2.68 µM
20,Cc1cc(C(C)(C)CC(C)(C)C)ccc1OCCOCC[N+](C)(C)Cc1ccccc1 [Methylbenzethonium chloride],0.756 µM
21,CC1COC(Cn2cncn2)(c2ccc(Oc3ccc(Cl)cc3)cc2Cl)O1 (centres unmarked) [Difenoconazole],22.7 µM
22,"O=[N+]([O-])c1cc(C(F)(F)F)c(Cl)c([N+](=O)[O-])c1Cl [2,4-Dichloro-1,3-dinitro-5-(trifluoromethyl)benzene]",34.7 µM
23,O=C(c1ccccc1)c1cc(Cl)ccc1O [(5-Chloro-2-hydroxyphenyl)phenylmethanone],46.5 µM
24,CC(C(O)c1ccccc1)N(C)CCOC(c1ccccc1)c1ccccc1 (centres unmarked) [Difeterol],1.83 µM
25,C=CCOC(Cn1ccnc1)c1ccc(Cl)cc1Cl (centres unmarked) [Imazalil sulfate],21.3 µM
26,Cc1c(C)n(Cc2ccccc2)c2ccc(C(=O)OCCN(C)C)cc12 [Indocate],14.2 µM
27,CC(=O)C1=C(C)[C@@H]2C[C@@]3(C1)[C@H](C)CC[C@H]3C2(C)C [Acetylcedrene],30.5 µM

row,Structure (SMILES),IC50
1,Cc1ccc(-n2nc(C(C)(C)C)cc2NC(=O)Nc2ccc(OCCN3CCOCC3)c3ccccc23)cc1 [Doramapimod],20.1 µM
2,C[N+]1(CC2COC(c3ccccc3)(C3CCCCC3)O2)CCCCC1 (centres unmarked) [Oxapium iodide],14 µM
3,"O=S(=O)(c1ccc(Cl)cc1)c1ccc(Cl)cc1 [4,4'-Dichlorodiphenyl sulfone]",49.7 µM
4,Clc1ccccc1C(c1ccccc1)(c1ccccc1)n1ccnc1 [Clotrimazole],25.5 µM
5,CCOP(=S)(OCC)SCCSCC [Disulfoton],43.3 µM
6,O=C(C=Cc1ccccc1)OCCCc1ccccc1 [3-Phenylpropyl cinnamate],19.5 µM
7,CCC(COC(=O)c1cc(OC)c(OC)c(OC)c1)(c1ccccc1)N(C)C (centres unmarked) [Trimebutine maleate],16.9 µM
8,"Clc1cc(Cl)c2c(c1)N=C1CCCCCN1C2 [1,3-Dichloro-6,7,8,9,10,12-hexahydroazepino[2,1-b]quinazoline hydrochloride (1:1)]",12.5 µM
9,CCCCCCCCCCCCn1cc[n+](C)c1 [1-Dodecyl-3-methylimidazolium iodide],10.6 µM
10,CC(C)Oc1cccc(NC(=O)c2ccccc2C(F)(F)F)c1 [Flutolanil],50.9 µM
11,CC(C)COC(=O)C=Cc1ccccc1 [Isobutyl 3-phenylacrylate],50.9 µM
12,Cc1[nH]nc2c1N=C(c1ccccc1Cl)c1cc([N+](=O)[O-])ccc1N2 [PharmaGSID_48505],11.4 µM
13,CCN1CCCC1CNC(=O)C(O)(c1ccccc1)c1ccccc1 (centres unmarked) [Epicainide],19.7 µM
14,O=C(CCC1CCN(Cc2ccccc2)CC1)c1ccc2c(c1)NCCCC2 [Zanapezil fumerate],4.59 µM
15,"CC(CC(C#N)(c1ccccc1)c1ccccc1)N(C)C (centres unmarked) [4-Dimethylamino-2,2-diphenylvaleronitrile]",29.6 µM
16,"Cc1c([N+](=O)[O-])cc2c(c1[N+](=O)[O-])C(C)(C)CC2(C)C [1,1,3,3,5-Pentamethyl-4,6-dinitro-2,3-dihydro-1H-indene]",16.7 µM
17,N=C(N)NN=C(/C=C/c1ccc([N+](=O)[O-])o1)/C=C/c1ccc([N+](=O)[O-])o1 [Nitrovin],2.3 µM
18,COc1ccc(S(=O)(=O)N2C(=O)[C@@](c3ccccc3OC)(N3C[C@H](O)C[C@H]3C(=O)N(C)C)c3cc(Cl)ccc32)c(OC)c1 [Nelivaptan],54.9 µM
19,COC(=O)c1cc(Oc2ccc(Cl)cc2Cl)ccc1[N+](=O)[O-] [Bifenox],23.6 µM
20,Clc1ccc(CCC(Cn2ccnc2)Sc2c(Cl)cccc2Cl)cc1 (centres unmarked) [Butoconazole nitrate],5.35 µM
21,Cc1cccc(Oc2ccccc2)c1 [1-Methyl-3-phenoxybenzene],23.9 µM
22,CC[N+](CC)(CC)CCOc1ccc(/C=C/c2ccccc2)cc1 [Stilonium iodide],8.82 µM
23,CN1CCC(=C2c3ccccc3Sc3ccccc32)CC1 [Pimethixene maleate],9.89 µM
24,CCCCCCCCCCCCOCCOCCOCCOCCOCCOCCOCCOCCOCCO [Polyoxyethylene (9) lauryl ether],21.3 µM
25,"Clc1ccc(C(c2ccc(Cl)cc2)C(Cl)Cl)cc1 [p,p'-DDD]",25.5 µM
26,CN(C/C=C/C#CC(C)(C)C)Cc1cccc2ccccc12 [Terbinafine],9.52 µM
27,O=C1CCCC=CCCCCCCCCCC1 [5-Cyclohexadecen-1-one],29.2 µM

row,Structure (SMILES),IC50
1,O=C1C=CC(=O)N1c1ccc(Cc2ccc(N3C(=O)C=CC3=O)cc2)cc1 [Bismaleimide],43.6 µM
2,C(=C(c1ccccc1)c1ccccc1)c1ccccc1 [Triphenylethylene],18.1 µM
3,CCCCCCCCCCCCCC[P+](CCCCCC)(CCCCCC)CCCCCC.N#C[N-]C#N [Trihexyltetradecylphosphonium dicyanamide],0.55 µM
4,"CCCCCCCCCCCCCCCCCC[N+](C)(C)C [N,N,N-Trimethyloctadecan-1-aminium chloride]",17.4 µM
5,"O=C(N=NC(=O)OCc1ccccc1)OCc1ccccc1 [Dibenzyl diazene-1,2-dicarboxylate]",21.9 µM
6,"CCCCCCCCCCn1cc[n+](CCCCCCCCCC)c1C [1,3-Didecyl-2-methylimidazolium chloride]",0.51 µM
7,O=C(CN1CCN(Cc2ccc3c(c2)OCO3)CC1)N1c2ccccc2Sc2ccccc21 [Fenoverine],3.51 µM
8,O=C1C2(Cl)C3(Cl)C4(Cl)C(Cl)(Cl)C5(Cl)C3(Cl)C1(Cl)C5(Cl)C24Cl (centres unmarked) [Kepone],12.7 µM
9,COC1CC(=C(c2cccs2)c2cccs2)C[N+](C)(C)C1 (centres unmarked) [Timepidium bromide],19.7 µM
10,CCOC(=O)c1nc(C(Cl)(Cl)Cl)n(-c2ccc(Cl)cc2Cl)n1 [Fenchlorazole-ethyl],49 µM
11,CC1=C(C(=O)OC(C)C)C(c2cccc([N+](=O)[O-])c2)C(C(=O)OC2CN(C(c3ccccc3)c3ccccc3)C2)=C(N)N1 (centres unmarked) [Azelnidipine],8.99 µM
12,CC(CCc1ccc(O)cc1)NCCc1ccc(O)c(O)c1 (racemic) [DL-Dobutamine],16.9 µM
13,CN1C2CCC(C)(C)C1CC(OC(=O)C(O)(c1cccs1)c1cccs1)C2 (centres unmarked) [Mazaticol],21.3 µM
14,COc1ccc(CCN(C)CCCC(C#N)(c2cc(OC)c(OC)c(OC)c2)C(C)C)cc1OC (centres unmarked) [Gallopamil hydrochloride],7.28 µM
15,O=c1[nH]c2ccc([S+]([O-])CCN3CCC(Cc4ccc(F)cc4)CC3)cc2o1 (centres unmarked) [Besonprodil],4.36 µM
16,"BrCC(Br)C1CCC(Br)C(Br)C1 (centres unmarked) [1,2-Dibromo-4-(1,2-dibromoethyl)cyclohexane]",34.5 µM
17,CN1CCCN=C1COC(=O)C(O)(c1ccccc1)C1CCCCC1 (centres unmarked) [Oxyphencyclimine hydrochloride],5.15 µM
18,CCC(=O)c1ccc2c(c1)N(CCCN(C)C)c1ccccc1S2 [Propionylpromazine hydrochloride],9.16 µM
19,O=C(COc1ccc(Cl)cc1)N1CCN(Cc2ccc3c(c2)OCO3)CC1 [Fipexide hydrochloride],16.1 µM
20,"CCCCC(CC)COC(=O)C(C#N)=C(c1ccccc1)c1ccccc1 (centres unmarked) [2-Ethylhexyl-2-cyano-3,3-diphenylacrylate]",18.4 µM
21,Fc1ccc(Oc2ccnc3cc(Cl)cc(Cl)c23)cc1 [Quinoxyfen],22.7 µM
22,c1ccc(CN(CC2=NCCN2)c2ccccc2)cc1 [Antazoline hydrochloride],15.7 µM
23,"N#CCCC(Br)(C#N)CBr (centres unmarked) [1,2-Dibromo-2,4-dicyanobutane]",36.7 µM
24,"O=C(N[C@@H]1N=C(c2ccccc2F)c2cccc3c2N(CC3)C1=O)c1cc2ccccc2[nH]1 [N-[(3R)-1-(2-Fluorophenyl)-4-oxo-3,4,6,7-tetrahydro[1,4]diazepino[6,7,1-hi]indol-3-yl]-1H-indole-2-carboxamide]",8.82 µM
25,Cc1ccc(C(=O)Oc2ccc(C(O)CNC(C)(C)C)cc2OC(=O)c2ccc(C)cc2)cc1 (centres unmarked) [Bitolterol],5.78 µM
26,O=C(CCCN1CCN(c2ccccn2)CC1)c1ccc(F)cc1 [Azaperone],4.77 µM
